According to patent publication US20110039762A1, “TARGETED ANTIMICROBIAL MOIETIES” (C3 JIAN, INC., priority 2009, published 2011):
Entries after “also recorded” stand apart in the source; their conditions may differ. Bridge positions count the residues as written; N and C are the ends. Square brackets hold non-standard residues; d marks the D form. Ends that are not written are not given here. dOrn = NCCC[C@@H](N)C(=O)O; Orn = NCCC[C@H](N)C(=O)O

These substances were tested on S. pneumoniae (assay: Kill or inhibit growth/proliferation; morphology, biofilm and growth disruption (Tables 5, 6)). Conditions: not given.
Type: cell-based, Streptococcus pneumoniae
Parameters: key: A: Peptide aggregates; B: Less hyphal formation; Clumps; Diffuse clumps and small polyps; F: Diffuse growth; H: Thin; I: Growth inhibition; Microcolony formation; Rippled; Small polyps; Thick; W: Halo formation on top, microlonies on bottom
For Organism, effect (morphology, biofilm and growth disruption) in this document: test concentration or dose not given here.
For Organism, effect in this document: test concentration or dose not given here.

| Substance | Organism, effect | Organism, effect (morphology, biofilm and growth disruption) |
| --- | --- | --- |
| PF-220 (VDPADDGTRHIRPEDGDPIEIDE; Peptide with targeting and/or antimicrobial activity) | S. pneumoniae (H) |  |
| PF-415 (MIDVTIGQKSKTGAFNASYSICFSGENFSF; Peptide with targeting and/or antimicrobial activity) | S. pneumoniae (D) |  |
| PF-419 (VVTGKVGSLPQIK; Peptide with targeting and/or antimicrobial activity) | S. pneumoniae (H) |  |
| PF-449 (MPTTKSKQKGWTNTKKASNTQ; Peptide with targeting and/or antimicrobial activity) | S. pneumoniae (H) |  |
| PF-455 (MARNDDDIKKIKGTLGQSPEVYGERKLPYT; Peptide with targeting and/or antimicrobial activity) | S. pneumoniae (A) |  |
| PF-468 (EDNKDKKDKKDK; Peptide with targeting and/or antimicrobial activity) | S. pneumoniae (H) |  |
| PF-485 (KNSMSRSIALID; Peptide with targeting and/or antimicrobial activity) | S. pneumoniae (A) |  |
| PF-644 (chain 1 TSGLIIGENGLNGL; chain 2 TSGLIIGENGLNGL; Peptide with targeting and/or antimicrobial activity) | S. pneumoniae (H) |  |
| PF-651 (chain 1 PRWPTGAGRHR; chain 2 PRWPTGAGRHR; Peptide with targeting and/or antimicrobial activity) |  | S. pneumoniae (H) |
| PF-652 (chain 1 FLAPARPDLQAQRQALAQ; chain 2 FLAPARPDLQAQRQALAQ; Peptide with targeting and/or antimicrobial activity) |  | S. pneumoniae (A) |

What follows are substances tested on microorganisms (e.g., bacteria, yeasts, fungi) (assay: Targeting peptide binding to target microorganisms (Table 3)). Conditions: microorganism the targeting peptide binds; binding in aqueous buffers varied by peptide solubility, preferably 1x PBS.

| Substance | Target(s) |
| --- | --- |
| PF-S024 (SKRGRKRKDRRKKKANHGKRPNS; Peptide with targeting and/or antimicrobial activity) | Corynebacteria |
| Py Pf 12 ([dS]KG[Orn][dS]SGK[dOrn]ES; lactam 8-C; not fully specified) | P. fluorescens |
| TT-305 (ARNALNMRDVPVDAAIIGIIDGMDEE; Peptide with targeting and/or antimicrobial activity) | F. nucleatum |
| TT-306 (KILNEAEGKLLKVIEKNGEIDIEEI; Peptide with targeting and/or antimicrobial activity) | F. nucleatum |
| TT-307 (NGDKKAKEELDKWDEVIKELNIQF; Peptide with targeting and/or antimicrobial activity) | F. nucleatum |
| TT-308 (GLVIIPNLIALIILFSQVRQQTKDYFSNPKLSSR; Peptide with targeting and/or antimicrobial activity) | F. nucleatum |
| TT-309 (EPLPLTKYDKKDTEMKKVFKEILAGKVGYEKEEE; Peptide with targeting and/or antimicrobial activity) | F. nucleatum |
| TT-310 (TKLKKNNKLLSAKKENTLHTKDK; Peptide with targeting and/or antimicrobial activity) | F. nucleatum |
| TT-311 (AIFDAMHNL; Peptide with targeting and/or antimicrobial activity) | S. mutans; also recorded: S. sobrinus |

Same assay, conditions: peptide binding in aqueous buffers varied by peptide solubility; preferably 1x PBS

| Substance | Target(s) (microorganisms bound by the targeting peptide) |
| --- | --- |
| PF-644 (chain 1 TSGLIIGENGLNGL; chain 2 TSGLIIGENGLNGL; Peptide with targeting and/or antimicrobial activity) | Mycobacteria spp |
| PF-651 (chain 1 PRWPTGAGRHR; chain 2 PRWPTGAGRHR; Peptide with targeting and/or antimicrobial activity) | Mycobacteria spp |
| PF-652 (chain 1 FLAPARPDLQAQRQALAQ; chain 2 FLAPARPDLQAQRQALAQ; Peptide with targeting and/or antimicrobial activity) | Mycobacteria spp |
| PF-794 (NLYFENQGN; Peptide with targeting and/or antimicrobial activity) | S. mutans |
| PF-795 (ALHKSGIQVIADWVPDQIYN; Peptide with targeting and/or antimicrobial activity) | S. mutans |
| PF-796 (YTQSNIPTAYALMLSNKDSI; Peptide with targeting and/or antimicrobial activity) | S. mutans |
| PF-797 (WYYFDNNGYM; Peptide with targeting and/or antimicrobial activity) | S. mutans |
| PF-798 (ALHSKGIKVMADWVPDQMYA; Peptide with targeting and/or antimicrobial activity) | S. mutans |
| PF-799 (YTHYNTALSYALLLTNKSSVP; Peptide with targeting and/or antimicrobial activity) | S. mutans |
| PF-800 (WYYFDNNGYM; Peptide with targeting and/or antimicrobial activity) | S. mutans |
| PF-C003 (FCSVDHDVITIAADHVKQGAEA; Peptide with targeting and/or antimicrobial activity) | A. naeslundii; also recorded: P. gingivalis; also recorded: S. mutans |
| PF-C008 (AQPRRTWLVNFGEVPSPGLTNDGMPDH; Peptide with targeting and/or antimicrobial activity) | A. naeslundii |
| PF-C034 (HPMPITVRSRKPGPLTAPSEH; Peptide with targeting and/or antimicrobial activity) | S. mutans; also recorded: E. coli |
| PF-C045 (FREGMGWPLSNEGSPTAPLPKHRNQV; Peptide with targeting and/or antimicrobial activity) | A. naeslundii; also recorded: T. denticola |
| PF-C050 (QGLARPVLRRIPL; Peptide with targeting and/or antimicrobial activity) | A. naeslundii; also recorded: S. mutans |
| PF-C063 (SHFRKGD; Peptide with targeting and/or antimicrobial activity) | A. naeslundii; also recorded: F. nucleatum; also recorded: S. mutans |

| Substance | Target(s) (microorganisms bound by the targeting peptide) |
| --- | --- |
| PF-C068 (LNLFASI; Peptide with targeting and/or antimicrobial activity) | A. naeslundii; also recorded: F. nucleatum; also recorded: S. mutans |
| PF-C080 (INIPGLF; Peptide with targeting and/or antimicrobial activity) | A. naeslundii; also recorded: F. nucleatum; also recorded: S. mutans |
| PF-C093 (EKLGTMV; Peptide with targeting and/or antimicrobial activity) | A. naeslundii; also recorded: F. nucleatum; also recorded: S. mutans |
| PF-C134 (NELMKYPATLTATATTPGIKYSHLCSVCL; Peptide with targeting and/or antimicrobial activity) | A. naeslundii; also recorded: F. nucleatum; also recorded: P. gingivalis; also recorded: S. mutans; also recorded: T. denticola |
| PF-C160 (AASGFTYCASNGVWHPY; Peptide with targeting and/or antimicrobial activity) | F. nucleatum |
| PF-C259 (AEIQPHCLSVL; Peptide with targeting and/or antimicrobial activity) | F. nucleatum; also recorded: S. mutans |
| PF-C271 (FFPSYYSIIITYF; Peptide with targeting and/or antimicrobial activity) | A. naeslundii; also recorded: F. nucleatum; also recorded: P. gingivalis; also recorded: S. mutans; also recorded: T. denticola |
| PF-C273 (KNMLKRRMKQKRLFDEEDRLRVLSKYTKSYY; Peptide with targeting and/or antimicrobial activity) | A. naeslundii; also recorded: P. gingivalis; also recorded: S. mutans; also recorded: T. denticola |
| PF-C285 (FTIIELKKQKIKHGENNKKTAHPLNEPFCARA; Peptide with targeting and/or antimicrobial activity) | A. naeslundii; also recorded: F. nucleatum; also recorded: P. gingivalis; also recorded: S. mutans; also recorded: T. denticola |
| PF-S004 (VLLNIFRTLLEFFSPSNAPGAEDVPLPDTQA; Peptide with targeting and/or antimicrobial activity) | S. epidermidis and MRSA and C. jeikeium |
| PF-S007 (VVAGVVLLTALAVGSKRKEKKQIKEIQRLLAATR; Peptide with targeting and/or antimicrobial activity) | S. epidermidis and MRSA |
| PF-S015 (IENLERGARRPP; Peptide with targeting and/or antimicrobial activity) | S. epidermidis and MRSA and C. jeikeium |
| PF-S018 (GMPQIPRLRI; Peptide with targeting and/or antimicrobial activity) | S. epidermidis and M. luteus and C. albicans and MRSA and E. faecalis and C. jeikeium and C. jejuni |
| PF-S023 (MAEDERRALKRRTNRGRTRTRKRITV; Peptide with targeting and/or antimicrobial activity) | S. epidermidis and MRSA |
| PF-S026 (TELKYNGEEYLLLTQRDILAVIEK; Peptide with targeting and/or antimicrobial activity) | S. epidermidis and MRSA and C. jeikeium |
| PF-S029 (TSDTQSQSPWLFDNADIVNIYPVQLMHSSDND; Peptide with targeting and/or antimicrobial activity) | M. luteus; also recorded: P. mirabilis; also recorded: E. coli; also recorded: C. albicans; also recorded: C. jeikeium; also recorded: C. jejuni |
